Laboratory results from US9586986B2, “Substituted 7-deazapurine ribonucleosides for therapeutic uses” (Institute of Organic Chemistry and Biochemistry ASCR, v.v.i., priority 2014, dated 2017).

Assays:
Type in all cases: cell-based
K562-TAX = assay: Cytostatic/cytotoxic MTT assay, K562-TAX; settings: Homo sapiens, paclitaxel resistant subline, 72 h, read-out: MTT, IC50 K562-TAX
Text: (§1) Unless otherwise stated, all cells were purchased from the […] (ATCC). The CCRF-CEM line is derived from T lymphoblastic leukemia, evincing high chemosenzitivity, K562 represent cells from a […] patient sample with bcr-abl translocation, HCT116 is colorectal tumor cell line and its p53 gene knock-down counterpart (HCT116p53−/−, Horizon Discovery, UK) is a model of human cancers with p53 inactivation frequently associated with poor prognosis, A549 cell line is lung adenocarcinoma. The daunorubicin resistant subline of CCRF-CEM cells (CEM-DNR bulk) and paclitaxel resistant subline K562-TAX were selected in our laboratory by cultivation of maternal cell lines in increasing concentrations of daunorubicine or paclitaxel, respectively. The CEM-DNR cells overexpress mrp-1 and mdr-1 genes, while K562-TAX cells overexpress mdr-1 only. Both proteins belong to the family of ABC transporters and are involved in the primary and/or acquired multidrug resistance phenomenon (ref.: Gottesman, M. M.; Fojo, T.; Bates, S. E. Multidrug resistance in cancer: role of ATP-dependent transporters. Nat. Rev. Cancer. 2002, 2, 48-58. (b) Noskova, V.; Dzubak, P.; Kuzmina, G.; Ludkova, A.; Stehlik, D.; Trojanec, R.; Janostakova, A.; Korinkova, G.; Mihal, V.; Hajduch, M. In vitro chemoresistance profile and expression/function of MDR associated proteins in resistant cell lines derived from CCRF-CEM, K562, A549 and MDA MB 231 parental cells. Neoplasma 2002, 49, 418-425). Non-malignant MRC-5 and BJ cells, derived from normal human fibroblasts, were used as controls. The cells were maintained in Nunc/Corning 80 cm^2 plastic tissue culture flasks and cultured in cell culture medium (DMEM/RPMI 1640 with 5 g/L glucose, 2 mM glutamine, 100 U/mL penicillin, 100 µg/mL streptomycin, 10% fetal calf serum, and NaHCO3). Cell suspensions were prepared and diluted according to the particular cell type and the expected target cell density (25,000-30,000 cells/well based on cell growth characteristics). Cells were added by pipette (80 L) into 96-well microtiter plates. Inoculates were allowed a pre-incubation period of 24 h at 37° C. and 5% CO2 for stabilization. Four-fold dilutions, in 20-L aliquots, of the intended test concentration were added to the microtiter plate walls at time zero. All test compound concentrations were examined in duplicate. Incubation of the cells with the test compounds lasted for 72 h at 37° C., in a 5% CO2 atmosphere at 100% humidity. At the end of the incubation period, the cells were assayed using MTT. Aliquots (10 L) of the MTT stock solution (5 mg/ml) were pipetted into each well and incubated for another 1-4 h. After this incubation period the formazan produced was dissolved by addition of 100 µL/well of 10% aq SDS (pH 5.5), followed by a further incubation at 37° C. overnight. The optical density was measured at 540 nm. The IC50 value, the drug concentration inhibiting the cell growth by 50%, was calculated from appropriate dose-response curves.
(§2) In vitro cytotoxic/cytostatic activity final nucleosides 1-5 was initially evaluated against […] cell lines derived from human solid tumors including lung (A549 cells) and colon (HCT116 and HCT116p53−/−) carcinomas, as well as leukemia cell lines (CCRF-CEM, CEM-DNR, K562 and K562-TAX) and, for comparison, non-malignant BJ and MRC-5 fibroblasts. Concentrations inhibiting the cell growth by 50% (IC50) were determined using a quantitative metabolic staining with 3-(4,5-dimethylthiazol-2-yl)-2,5-diphenyltetrazolium bromide (MTT) (ref.: Denizot, F.; Lang, R. Rapid colorimetric assay for cell growth and survival: Modifications to the tetrazolium dye procedure giving improved sensitivity and reliability. J. Immunol. Meth. 1986, 89, 271-277) following a 3-day treatment.
(§3) Multidrug resistance is a major therapeutic problem in cancer chemotherapy. […]

CCRF-CEM = assay: Cytostatic/cytotoxic MTT assay, CCRF-CEM; settings: Homo sapiens, 72 h incubation, read-out: MTT, IC50 CCRF-CEM
Text: as §1, §2

[1] = tested on: Huh-7 cells harboring replicon 2A; assay: Cytotoxicity in replicon 2A cells; settings: HCV subtype 2A replicon
Description: (§4) Compounds were also tested in Huh-7 cells harboring sub-genomic reporter replicons derived from HCV subtypes 1B and 2A (ref.: Stuyver, L. J.; Whitaker, T.; McBrayer, T. R.; Hernandez-Santiago, B. I.; Lostia, S.; Tharnish, P. M.; Ramesh, M.; Chu, C. K.; Jordan, R.; Shi, J. X.; Rachakonda, S.; Watanabe, K. A.; Otto, M. J.; Schinazi, R. F. Antimicrob. Agents Chemother. 2003, 47, 244-254).

K562 = assay: Cytostatic/cytotoxic MTT assay, K562; settings: Homo sapiens, K562; 72 h incubation; read-out: MTT, IC50 K562
Text: as §1, §2

BJ = assay: Cytostatic/cytotoxic MTT assay, BJ fibroblasts; settings: Homo sapiens, non-malignant fibroblasts, 72 h, read-out: MTT, IC50 BJ
Text: as §1, §2

CEM-DNR-bulk = assay: Cytostatic/cytotoxic MTT assay, CEM-DNR-bulk; settings: Homo sapiens; daunorubicin resistant subline, 72 h; read-out: MTT, IC50 CEM-DNR-bulk
Text: as §1, §2, §3

A549 = assay: Cytostatic/cytotoxic MTT assay, A549; settings: Homo sapiens, A549; 72 h incubation; read-out: MTT, IC50 A549
Text: as §1, §2

MRC-5 = assay: Cytostatic/cytotoxic MTT assay, MRC-5 fibroblasts; settings: Homo sapiens, MRC5; non-malignant fibroblasts, 72 h; read-out: MTT, IC50 MRC-5
Text: as §1, §2

[2] = tested on: HCV subtype 2A replicon in Huh-7 cells; assay: HCV sub-genomic reporter replicon assay, subtype 2A; settings: Hepatitis C virus; Huh-7 cells, HCV subtype 2A replicon; read-out: Replicon 2A EC50
Description: as §4

| Compound | IC50 (K562-TAX) [µM] | IC50 (CCRF-CEM) [µM] | CC50 [1] [µM] | IC50 (K562) [µM] | IC50 (BJ) [µM] | IC50 (CEM-DNR-bulk) [µM] | IC50 (A549) [µM] | IC50 (MRC-5) [µM] | EC50 [2] [µM] |
| --- | --- | --- | --- | --- | --- | --- | --- | --- | --- |
| CSc1ncnc2c1c(I)cn2[C@@H]1O[C@H](CO)[C@@H](O)[C@H]1O [Compound 2h, 5-Iodo-4-methylsulfanyl-7-(β-D-ribofuranosyl)-7H-pyrrolo[2,3-d]pyrimidine] | 7.73 | > 20 | > 44 | 10.5 | 86.1 | > 20 | > 20 | > 100 | > 44 |
| COc1ncnc2c1c(-c1ccccc1)cn2[C@@H]1O[C@H](CO)[C@@H](O)[C@H]1O [Compound 1e, 4-Methoxy-5-phenyl-7-(β-D-ribofuranosyl)-7H-pyrrolo[2,3-d]pyrimidine] | > 20 | > 20 | > 44 | > 20 | > 100 | > 20 | > 20 | > 100 | > 44 |
| CSc1ncnc2c1c(-c1cc3ccccc3o1)cn2[C@@H]1O[C@H](CO)[C@@H](O)[C@H]1O [Compound 2f, 5-(Benzofuran-2-yl)-4-methylsulfanyl-7-(β-D-ribofuranosyl)-7H-pyrrolo[2,3-d]pyrimidine] | > 20 | > 20 | > 44 | 17.2 | 67.2 | > 20 | > 20 | 70.8 | 29.6 |
| CN(C)c1ncnc2c1c(-c1cccs1)cn2[C@@H]1O[C@H](CO)[C@@H](O)[C@H]1O [Compound 4c, 4-Dimethylamino-7-(β-D-ribofuranosyl)-5-(thiophen-2-yl)-7H-pyrrolo[2,3-d]pyrimidine] | > 20 | > 20 | > 44 | > 20 | > 100 | > 20 | > 20 | > 100 | > 44 |
| CNc1ncnc2c1c(-c1ccco1)cn2[C@@H]1O[C@H](CO)[C@@H](O)[C@H]1O [Compound 3a, 5-(Furan-2-yl)-4-methylamino-7-(β-D-ribofuranosyl)-7H-pyrrolo[2,3-d]pyrimidine] | 15.1 | 0.18 | > 44 | 0.22 | 5.04 | > 20 | 2.57 | 90.8 | 0.14 |
| Cc1ncnc2c1c(-c1cccs1)cn2[C@@H]1O[C@H](CO)[C@@H](O)[C@H]1O [Compound 5c, 4-Methyl-7-(β-D-ribofuranosyl)-5-(thiophen-2-yl)-7H-pyrrolo[2,3-d]pyrimidine] | > 20 | > 20 | > 44 | > 20 | > 100 | > 20 | > 20 | > 100 | > 44 |
| CNc1ncnc2c1c(-c1ccoc1)cn2[C@@H]1O[C@H](CO)[C@@H](O)[C@H]1O [Compound 3b, 5-(Furan-3-yl)-4-methylamino-7-(β-D-ribofuranosyl)-7H-pyrrolo[2,3-d]pyrimidine] | > 20 | > 20 | > 44 | > 20 | 96.3 | > 20 | > 20 | > 100 | > 44 |
| CN(C)c1ncnc2c1c(-c1ccoc1)cn2[C@@H]1O[C@H](CO)[C@@H](O)[C@H]1O [Compound 4b, 4-Dimethylamino-5-(furan-3-yl)-7-(β-D-ribofuranosyl)-7H-pyrrolo[2,3-d]pyrimidine] | 14.9 | 13.3 | > 44 | 1.54 | 99.2 | > 20 | > 20 | > 100 | > 44 |
| CSc1ncnc2c1c(-c1ccoc1)cn2[C@@H]1O[C@H](CO)[C@@H](O)[C@H]1O [Compound 2b, 5-(Furan-3-yl)-4-methylsulfanyl-7-(β-D-ribofuranosyl)-7H-pyrrolo[2,3-d]pyrimidine] | 3.25 | 14.2 | > 44 | 0.06 | 98.8 | > 20 | 0.28 | > 100 | > 44 |
| CNc1ncnc2c1ccn2[C@@H]1O[C@H](CO)[C@@H](O)[C@H]1O [RC3, reference compound] | 0.92 | > 20 | > 44 | > 20 | 91.4 | 4.89 | > 20 | 97.8 | > 44 |
| COc1ncnc2c1c(-c1cccs1)cn2[C@@H]1O[C@H](CO)[C@@H](O)[C@H]1O [Compound 1c, 4-Methoxy-7-(β-D-ribofuranosyl)-5-(thiophen-2-yl)-7H-pyrrolo[2,3-d]pyrimidine] | 6.2 | 0.09 | > 44 | 0.07 | 62.8 | 12.1 | 4.85 | 43.2 | > 44 |
| CSc1ncnc2c1c(-c1ccco1)cn2[C@@H]1O[C@H](CO)[C@@H](O)[C@H]1O [Compound 2a, 5-(Furan-2-yl)-4-methylsulfanyl-7-(β-D-ribofuranosyl)-7H-pyrrolo[2,3-d]pyrimidine] | 0.21 | 0.05 | > 44 | 0.04 | 0.26 | 0.23 | 0.05 | 73.9 | 0.05 |
| CNc1ncnc2c1c(-c1cccs1)cn2[C@@H]1O[C@H](CO)[C@@H](O)[C@H]1O [Compound 3c, 4-Methylamino-7-(β-D-ribofuranosyl)-5-(thiophen-2-yl)-7H-pyrrolo[2,3-d]pyrimidine] | > 20 | > 20 | > 44 | > 20 | > 100 | > 20 | > 20 | > 100 | > 44 |
| CN(C)c1ncnc2c1c(-c1ccco1)cn2[C@@H]1O[C@H](CO)[C@@H](O)[C@H]1O [Compound 4a, 4-Dimethylamino-5-(furan-2-yl)-7-(β-D-ribofuranosyl)-7H-pyrrolo[2,3-d]pyrimidine] | 1.28 | 2.91 | > 44 | 0.15 | > 100 | 3.14 | 4.6 | > 100 | 1.35 |
